The source of these data is patent US20080076137A1, “Bioanalytic Systems and Methods” (priority 2006, published 2008).

The experiment deals with mouse monoclonal antibodies (mAb) B8 against Btri. Description: ELISA: binding of anti-Btri mAb to Streptavidin-coated plates modified with biotinylated Btri glycoconjugates. As to conditions: for fluorescence intensity I (binding capacity / maximal activity): corrected fluorescence 355nm/460nm, at loading of maximal binding. Here is the method:
Biot1-PNPA was used to prepare a polyacrylamide conjugate with blood group trisaccharide B (Btri), Galα1-3(Fucα1-2)Gal-(FIG. 1b, Glyc=Btri). The obtained end-labeled glycopolymer; biott-PHEAA-(Btri)x (molar fraction of Btri is 20%), was tested on ability to bind monoclonal antibodies (mAbs) against Btri in ELISA. Its antibody binding activity was compared to that of other biotinylated derivatives of Btri, two monomeric glycosides with Btri-biot linkers of different length and a glycopolymer, PHEAA-(Btri)x-bioty. The latter was synthesized by the routine approach (see FIG. 1a) and contained biotin residues randomly pendant to the polymer backbone as side groups.
Dependence of signal in ELISA from loading of Streptaviditn-coated plates with biotynylated glycoconjugates is shown in FIG. 8. As shown, binding of antibodies with Streptavidin-coated plates modified with biotinilated glycoconjugates. The Streptavidin-coated plates were consequentially incubated with the glycoconjugates and mouse mAb; for development of the bound mAbs an anti-mouse alkaline phosphatase conjugate in combination with a fluorescent substrate were used. The detected fluorescence intensity is plotted against added per well amounts of a) Btri and b) biotin related to the quantity of Streptavidin in well. According the manufacturer 125 pmole Streptavidin is contained per well, the working well surface was calculated to be 9·10^15 Å^2. […] The antibody binding to surface modified with the biotinylated monovalent Btri-glycosides was noticeably lower then in the cases with the multivalent ligands. For the glycoside with a long linker, Btri-O(CH2)3NHCO(CH2)5NH-biot, assay signal was detected only when coating concentration of the glycoside exceeded 20 ng/well (0.18 mole biotin/mole Streptavidin, and 22 pmole of Btri/well).
All chemicals and solvents apart from those mentioned below were purchased from Merck (Germany) and Fluka (Switzerland). The solvents were dried and purified by conventional procedures. Galα1-3(Fucα1-2)Galβ-O(CH2)3NH2, 4-Nitrophenylacrylate, PNPA and PHEAA-(Btri)x-biotiny were synthesized as described elsewhere. Mouse monoclonal antibodies (mAb) B8 against Btri were obtained from All-Russian Hematology Research Center, Moscow. Anti-mouse IgG+IgM (H+L)-alkaline phosphatase conjugate (Ig-AP) was the product of AP Biotech (UK). The organocobalt complexes used in this work were protected from light; their solutions were concentrated under vacuum with bath temperature kept below 35° C.
Enzyme-Linked Immunosorbent Assay.
Before test plates “Reacti-Bind Streptavidin Coated High Binding Capacity Black 96-Well Plate” (Pierce) were rinsed twice with PBS. Then serial tenfold dilutions of the biotinylated glycoconjugates contained Btri in PBS (0.02-200 μg ml^−1, […] per well) were added onto the plates for 1 h at 37° C. Plates were washed with PBS containing 0.1% Tween-20 (washing buffer). The same way plates were washed between all the next steps. After washing the plates were blocked with 3-% BSA in PBS. B8 mAbs (1:100 in PBS containing 0.3% BSA) were added and plates were incubated for 1 h at 37° C. After that plates were washed and incubated with Ig-AP (1:5000 in PBS containing 0.3% BSA) for 1 h at 37° C. […] After 30-min incubation at room temperature fluorescence intensity (355nm/460nm) was measured by “Victor^2” multilabel counter (PerkinElmer). The collected data were expressed in fluorescence units. Each assay was done in duplicate, blank reaction was performed by omitting mAb. The blank reading was subtracted from the final fluorescence to provide the corrected fluorescence intensity values.
(ELISA stands for enzyme-linked immunosorbent assay.)

Consider Btri-O(CH2)3NH-biot, for which the “fluorescence intensity I (binding capacity / maximal activity)” value is ~5×10^4 f.u. In addition, the “interaction with mAb (in words)” value (ELISA on Streptavidin-coated plates) is “exceptionally weak”.

Regarding Btri-O(CH2)3NHCO(CH2)5NH-biot, the “fluorescence intensity I (binding capacity / maximal activity)” value is ~70×10^4 f.u. Besides, the “coating concentration above which assay signal was detected” value (0.18 mole biotin/mole Streptavidin, 22 pmole of Btri/well) is recorded as “exceeded 20 ng/well”. Moreover, the “loading at which maximal binding of mAb / maximal activity was achieved” value (Streptavidin-coated plate, 125 pmole Streptavidin per well, 200 ng/well = 186 pmol of Btri, 220 ng/well = 220 pmole of Btri/well) was 220 ng/well. For the same substance, the “surface density of Btri at which binding with mAb reached maximal level” value (working well surface calculated to be 9·10^15 Å^2) was “about 15 residues/1000 Å^2”.
